Reference: article PMC12344774, “Ferrocenyl Quinoline-Benzimidazole Hybrids: A Multistage Strategy to Combat Drug-Resistant Malaria” (Inorganic Chemistry, 2025)
Where two headings read alike, the source gives them in different places.

Tests used:
[1] = tested on: PfNF54; assay: In vitro ABS antiplasmodial activity, pLDH assay, drug-sensitive NF54; format: cell-based, Plasmodium falciparum; settings: read-out: PfNF54 IC50 ± SEM
Text: (§1) This side chain is also present in the well-known antiplasmodial agent, FQ.
(§2) Test samples were screened in technical duplicate or triplicate, for three or four biological replicates, for their in vitro blood stage antiplasmodial activity against both the drug-sensitive (NF54) and multidrug-resistant (K1) strains of . Continuous in vitro cultures of asexual erythrocyte stages of were maintained using a modified method of Trager and Jensen. A quantitative assessment of the in vitro antiplasmodial activity was determined via the parasite lactate dehydrogenase (pLDH) assay, using a modified method described by Makler and Hinrichs.
(§3) The test samples were prepared to a 20 mg/mL stock solution in 100% DMSO. Stock solutions were stored at −20 °C. Further dilutions were prepared in complete medium on the day of the experiment. […] Chloroquine diphosphate (CQDP) was used as the reference drug in all experiments. Test samples were tested at a starting concentration of either 100 μg/mL, 50 μg/mL, 10 μg/mL, or 1 μg/mL, which was then serially diluted 2-fold, in complete medium, to give 10 concentrations. The same dilution technique was used for all samples. […] The IC50 values were obtained from full dose–response curves, using a nonlinear dose–response curve fitting analysis, via GraphPad Prism v.5 software.

[2] = tested on: PfK1; assay: microbe, parasite or virus in culture; format: cell-based, Plasmodium falciparum; settings: read-out: PfK1 IC50 ± SEM
Text: as §1, §2, §3

[3] = tested on: β-hematin formation; assay: NP-40 detergent-mediated β-hematin formation inhibition assay (cell-free); format: biochemical; settings: NP-40, pH 4.8, 5 h, 37 °C, read-out: β-hematin formation inhibition IC50 ± SEM
Text: The ability of a compound to inhibit Hz formation can be predicted using the biomimetic cell-free NP40 detergent-mediated β-hematin formation inhibition assay. , This assay mimics the conditions in the acidic DV of the parasite and relies on the binding of pyridine to uncrystallized free heme to detect the inhibition of β-hematin formation using UV–vis spectroscopy (with absorbance measured at 405 nm). , Consequently, the ability of the ferrocenyl quinoline-benzimidazole hybrids (C1–C5) to inhibit β-hematin (synthetic Hz) formation was investigated as a potential mechanism of antiplasmodial action.
The β-hematin formation inhibition assay was modified from the method reported by Sandlin et al. , Stock solutions of the respective test compounds were prepared to 10 mM, in 100% DMSO, with the exception of CQ (used in the salt form, CQDP), which was prepared in Milli-Q water. […] NP-40 is a detergent used to mediate the formation of β-hematin. The solution in column 12 was then serially diluted 2-fold, through to column 2, to give a total of 11 concentrations. Column 1 contained 0 μM of the test compound and thus served as a blank. […] A 178.8 μL aliquot of this hematin suspension was added to 20.0 mL of a 2 M acetate buffer (pH = 4.8) and 100 μL of this solution added to each well. The plates were then covered and incubated for 5 h, at 37 °C. The assay was analyzed using the pyridine-ferrochrome method developed by Ncokazi and Egan. A solution containing water/acetone/2 M HEPES buffer (pH 7.4)/pyridine, in a v/v ratio of 2/2/1/5, was prepared and 32 μL was added to all wells, followed by 60 μL of acetone. The absorbance values were then measured at 405 nm, the results plotted using GraphPad Prism (v5), and the IC50 values obtained using a sigmoidal dose–response curve fitting analysis.

[4] = tested on: Immature gametocytes (>90% stage II/III); assay: microbe, parasite or virus in culture; format: cell-based, Plasmodium falciparum; settings: for % Inhibition, immature gametocytes: maximum inhibition at 10 μM, 48 h drug pressure; for inhibition at 5 µM: Plasmodium falciparum, read-out: % Inhibition, immature gametocytes (controls)
Experimental: (§4) Compounds are diluted 3-fold in at least a 9-point serial dilution series starting at 20 μM, with a nonlethal DMSO concentration of <0.1% maintained. Luciferase activity was determined in 30 μL parasite lysates by adding 30 μL luciferin substrate (Promega Luciferase Assay System) at room temperature and detection of resultant bioluminescence at an integration constant of 10 s with the GloMax-Multi + Detection System with Instinct Software. Methylene blue (5 μM) and the clinical antimalarial candidate MMV390048 (5 μM) were used as controls. IC50 values were determined in GraphPad Prism using a nonlinear regression fit with variable slope (4-parameter) on the dose–response data.
(§5) Assay quality parameters are evaluated for each assay, including Z′-factors (data quality compared to reproducibility using signal, noise, and background parameters; accepted metric >0.6), regression (accepted r 2 > 0.9); >80% viable parasites (top plateau); <20% killed parasites (bottom plateau), hill slope ∼1.

[5] = tested on: Mature gametocytes (>95% stage V); assay: microbe, parasite or virus in culture; format: cell-based, Plasmodium falciparum; settings: for % Inhibition, mature gametocytes: maximum inhibition at 10 μM, 48 h drug pressure; for inhibition at 5 µM: Plasmodium falciparum, read-out: % Inhibition, mature gametocytes (controls)
Experimental: as §4, §5

[6] = Hydroxyl radical (ROS) generation with H2O2, DCFH2 fluorescent probe; settings: 200 μM in 1:4 DMSO/PBS, H2O2 and H2DCF added, 30 min
Text: Fluorogenic redox-sensitive probes are often employed to measure the presence of ROS, due to their low cost, ease of use, and nontoxicity, allowing for spectrofluorimetric measurements. 2′,7′-Dichlorodihydrofluorescein diacetate (DCFH2-DA) is the most widely used fluorogenic probe. Cleavage of the acetate groups, through alkaline hydrolysis, generates 2′,7′-dichlorodihydrofluorescein (DCFH2), which in the presence of oxidants, yields the highly fluorescent 2′,7′-dichlorofluorescein (DCF, λem = 523 nm). The DCFH2 probe reacts with an array of oxidants, making it an ideal indicator of general oxidative stress. […] The presence of these radicals was confirmed by monitoring the fluorescence over time (Figure ). […].
Stock solutions of DCFH2-DA were prepared to 1 mM in 100% DMSO and stored at −20 °C in the dark until use. The deacetylation of DCFH2-DA involved adding 2 μL of a 0.5 M NaOH solution to 200 μL of the 1 mM DCFH2-DA stock solution. The solution was mixed for 30 min, in the dark, at room temperature and then quenched with 800 μL of PBS buffer to obtain a 200 μM H2DCF 1:4 DMSO/PBS solution mixture.
[…]. The fluorometer was blanked using a 1:4 DMSO/PBS solution mixture. To identify hydroxyl radical production, 2 μL of a 0.5% H2O2 solution was added to 900 μL of the 200 μM complex solution in a cuvette at 25 °C. 100 μL of the prepared H2DCF solution (200 μM) was quickly added, and the readings recorded at 530 nm (emission wavelength), at 2 min intervals, over 30 min.

[7] = Cyclic voltammetry of the ferrocene/ferrocenium couple; format: physicochemical; settings: for Reversibility of the ferrocene/ferrocenium couple: DCM/0.1 M TBAP system; for Ipc/Ipa / ΔE / Anodic peak potential Epa / Cathodic peak potential Epc / Half-wave potential E1/2: scan rate 100 mV/s, CH2Cl2, 0.1 M TBAP; for Anodic peak potential Epa / Cathodic peak potential Epc / Half-wave potential E1/2: vs Ag/AgCl
Experimental: It has been proposed that the oxidation of ferrocene (Fe(C5H5)2) to the ferrocenium cation (Fe(C5H5)2 ^+) is a reversible one-electron transfer process. […] This prompted the investigation into the electrochemical properties of the Fe(C5H5)2/Fe(C5H5)2 ^+ couple in complexes C1–C5, using cyclic voltammetry. FQ was used as the reference, as it is considered the benchmark for all newly developed ferrocenyl-based antiplasmodials.
Nuclear magnetic resonance (NMR) spectra were recorded on a Bruker XR600 MHz spectrometer (^1H at 599.95 MHz and ^13C{^1H} at 151.0 MHz), a Bruker […] (^1H at 400.22 MHz and ^13C{^1H} at 100.65 MHz), or a Varian Mercury 300 (^1H at 300.08 MHz) spectrometer. These were equipped with a Bruker Biospin GmbH casing and sample injector at 30 °C and tetramethylsilane (TMS) was used as the internal standard. Coupling constants are reported in Hz and chemical shifts are reported in ppm relative to residual solvent signals. Infrared (IR) spectroscopy was performed on a PerkinElmer Spectrum 100 FT-IR spectrometer, using attenuated total reflectance (ATR), with vibrations measured in units of cm^–1. Cyclic voltammetric measurements were carried out at ambient temperature under an inert argon atmosphere using a three-electrode system on a BASi Epsilon Eclipse potentiostat/galvanostat electrochemical workstation. The C-3 cell stand, equipped with a glassy carbon working electrode, Ag/AgCl (saturated NaCl) reference electrode, and a Pt wire auxiliary electrode were used to carry out electrochemical measurements. All experiments were carried out in anhydrous dichloromethane containing 0.10 M tetra-n-butylammonium perchlorate (TBAP) as the supporting electrolyte.

[8] = tested on: CHO cell line
Experimental: (§6) The samples were tested over 48 h against the Chinese hamster ovarian (CHO) cell line to determine general cytotoxicity. […] Quantitative assessment of toxic activity in vitro was determined via the MTT assay using the method described. Cell viability was determined colorimetrically using the breakdown of a dye by enzymes of the electron transport chain, taking place in the mitochondria of metabolically active living cells, as a marker for survival.
(§7) Compounds were tested in triplicate on a single occasion against these cells using the MTT assay. The test samples were prepared to a 10 mM stock solution, in 100% DMSO, and stored at −20 °C until use. Samples were tested as a suspension if not completely dissolved. Further dilutions to the desired starting concentration were freshly prepared in growth media at the start of the experiment.
(§8) Cells were plated to a density of 10^5 cells/well in 96-well plates and allowed to attach for 24 h. […] After 44 h MTT was added, and the plates were read 4 h later at 540 nm on a spectrophotometer following the addition of 100 μL of DMSO and gentle plate-shaking to solubilize and visualize the dye. Survival was plotted against concentration, and the IC50 values were obtained using a nonlinear dose–response curve fitting analysis via the Dotmatics software platform.

[9] = tested on: CHO cell line; assay: Cytotoxicity, MTT assay; settings: selectivity index
Experimental: as §6, §7, §8

[10] = tested on: NF54; settings: drug-sensitive NF54; footnote e: Results from ref (number not given); read-out: PfNF54 IC50 ± SEM; cited from earlier work
[11] = tested on: K1; settings: MDR K1; footnote e: Results from ref (number not given); read-out: PfK1 IC50 ± SEM; cited from earlier work
[12] = drug-sensitive NF54, ABS, pLDH, 48 h incubation
[13] = MDR K1, ABS, pLDH, 48 h incubation

Row | Compound | IC50 ([1]; Plasmodium falciparum, NF54, 48 h) | IC50 ([2]; Plasmodium falciparum, 48 h) | IC50 [3] | IC50 [1, 12] | IC50 [2, 13] | % Inhibition, immature gametocytes [4] | % Inhibition, mature gametocytes [5] | Hydroxyl radical generation (fluorescence intensity over time) [6] | Reversibility of the ferrocene/ferrocenium couple [7] | Ipc/Ipa [7] | ΔE [7] | Anodic peak potential Epa [7] | Cathodic peak potential Epc [7] | Half-wave potential E1/2 [7] | CC50 [8] | SI (CC50 CHO/IC50 NF54) [9] | IC50 [10] | IC50 [11] | inhibition at 5 µM [4] | inhibition at 5 µM [5]
1 | CCN(CC)CCCC(C)Nc1ccnc2cc(Cl)ccc12 (stereo not shown) [CQ, chloroquine, reference compound] | 15 ± 1 nM | 170 ± 10 nM | 11000 ± 870 nM | – | – | – | – | – | – | – | – | – | – | – | – | – | – | – | – | –
2 | Cc1ccc2c(c1)nc(-[c-]1cccc1)n2CCNCCNc1ccnc2cc(Cl)ccc12.[Fe+2].c1cc[cH-]c1 [Complex C2, N1-(7-Chloroquinolin-4-yl)-N2-(2-(5-methyl-2-ferrocenyl-1H-benzo[d]imidazole-1-yl)ethyl)ethane-1,2-diamine] | – | – | 4470 nM | 38 ± 2 nM | 9.4 ± 0.9 nM | 75% | 32% | no changes in the fluorescence intensity | chemically and electrochemically reversible | 1.03 | 0.133 V | 0.651 V | 0.518 V | 0.584 V | > 50000 nM | – | – | – | – | –
3 | Cc1ccc2c(c1)nc(-[c-]1cccc1CN(C)C)n2CCNCCNc1ccnc2cc(Cl)ccc12.[Fe+2].c1cc[cH-]c1 (stereo not shown) [Complex C4, N1-(7-Chloroquinolin-4-yl)-N2-(2-(5-methyl-2-(2-N,N-dimethylaminomethyl)ferrocenyl-1H-benzo[d]imidazole-1-yl)ethyl)ethane-1,2-diamine] | – | – | 4900 nM | 38 ± 3 nM | 170 ± 20 nM | 59% | 72% | produce hydroxyl radicals | chemically and electrochemically irreversible | – | – | 0.662 V | – | – | 29800 ± 500 nM | 784.2 | – | – | – | –
4 | Cc1ccc2c(c1)nc(-[c-]1cccc1)n2CCN(CCNc1ccnc2cc(Cl)ccc12)[c-]1cccc1.[Fe+2].[Fe+2].c1cc[cH-]c1.c1cc[cH-]c1 [Complex C5, N1-Ferrocenyl-N2-(7-Chloroquinolin-4-yl)-N1-(2-(5-methyl-2-ferrocenyl-1H-benzo[d]imidazole-1-yl)ethyl)ethane-1,2-diamine] | – | – | 37700 ± 770 nM | 1510 ± 140 nM | 14500 ± 1140 nM | 60% | 32% | no changes in the fluorescence intensity | chemically and electrochemically reversible | 1.04 | 0.190 V | 0.632 V | 0.442 V | 0.537 V | > 50000 nM | – | – | – | – | –
5 | CN(C)Cc1ccc[c-]1CNc1ccnc2cc(Cl)ccc12.[Fe+2].c1cc[cH-]c1 (stereo not shown) [FQ, ferroquine, reference compound] | – | – | – | – | – | – | – | generate hydroxyl radicals | chemically and electrochemically reversible | 1.00 | 0.125 V | 0.613 V | 0.488 V | 0.550 V | – | – | 20 ± 3 nM | 23.9 ± 0.2 nM | – | –
6 | [Fe+2].c1cc[cH-]c1.c1cc[cH-]c1 [Ferrocene, reference compound] | – | – | – | – | – | – | – | generate hydroxyl radicals | – | 1.05 | 0.171 V | 0.543 V | 0.372 V | 0.458 V | – | – | – | – | – | –
7 | CS(=O)(=O)c1ccc(-c2cnc(N)c(-c3ccc(C(F)(F)F)nc3)c2)cc1 [MMV390048, reference compound] | – | – | – | – | – | – | – | – | – | – | – | – | – | – | – | – | – | – | > 77% | > 93%
8 | CN(C)c1ccc2nc3ccc(=[N+](C)C)cc-3sc2c1 [Methylene blue, reference compound] | – | – | – | – | – | – | – | – | – | – | – | – | – | – | – | – | – | – | > 97% | 100%
